{
  "source": "patent US20220378889A1",
  "about": "“NEO-EPITOPE VACCINES AND METHODS OF TREATING CANCER” (Epivax Therapeutics Inc., priority 2019, published 2022)",
  "key": {"[1]": {"tested_on": "CT26 murine colon tumor cells", "assay": "CT26 tumor growth with or without poly-ICLC (Example 13)", "format": "in vivo, BALB/c mice", "conditions": "day 25 post-tumor implantation; sc twice per week for three weeks from day 4", "description": "The goal of this experiment was to determine the requirement for the inclusion of the adjuvant poly-ICLC in a peptide vaccine containing ANCER™ selected neoantigens. For this experiment, female BALB/c mice were implanted subcutaneously with 3×10^5 CT26 murine colon tumor cells. Tumor growth was monitored by caliper measurement and mice were sacrificed 45 days after tumor implantation or when tumor volumes reached 2000 mm^3, whichever came first.\nFour vaccine groups were tested (n=10 mice/group):\nGroup 2=PBS with 50 μg poly-ICLC\nGroup 3=20 ANCER™ selected (uncapped) peptides with 50 μg poly-ICLC\nGroup 4=20 ANCER™ selected (uncapped) peptides only\nPeptide vaccines were comprised of 20 different ANCER™ selected peptides at a concentration of 5 μg/peptide for a total dose of 100 μg peptide per immunization. Mice were immunized subcutaneously in the opposite flank from tumor implantation twice per week for three weeks, starting at day 4 post-tumor implantation."}, "[2]": {"tested_on": "CT26 tumor cells", "assay": "CT26 tumor growth and survival after vaccination (Example 1)", "conditions": "N=10 mice per group", "experimental": "Mice were separated into three groups: 1) PBS control; 2) poly-ICLC (vehicle); 3) ANCER™-selected CT26 Neoantigen Peptides+poly-ICLC. • Group 1: PBS, sc injections at days 5, 8, 12, 15, 19, 22, and 26. • Group 2: poly-ICLC, 50 μg, sc injections at days 5, 8, 12, 15, 19, 22, and 26. • Group 3: 5 μg/ANCER™-selected CT26 Neoantigen Peptide (100 μg total ANCER™-selected CT26 Neoantigen Peptides)+50 μg poly-ICLC, sc injections at days 5, 8, 12, 15, 19, 22, and 26.\nAll mice (N=10 mice per group) were injected 3*10^5 CT26 tumor cells in 0% Matrigel at day 0. Mice were sacrificed once the tumor volume reached 2,000 mm^3 or at day 45, whichever came first."}},
  "data": [
    {"substance": "poly-ICLC", "values": [
      {"measurement": "control of tumor growth relative to PBS / poly-ICLC alone", "setting": "[1]", "result": "no difference in tumor growth kinetics"},
      {"measurement": "mice reaching endpoint (tumor volume of at least 2,000 mm^3) by day 28", "setting": "[2]", "result": 60, "unit": "%"}
    ]}
  ]
}
